Measurements as given in patent US10570155B2, “Imidazooxazole derivative having antitumor effect, and pharmaceutical composition including same” (KOREA INSTITUTE OF SCIENCE AND TECHNOLOGY, priority 2016, dated 2020).
pIC50: −log10 of the molar value.

Columns and labels:
[1] = target: C-RAF (Homo sapiens (Human), UniProt P04049, Y340D/Y341D); test: Protein kinase enzymatic activity (Reaction Biology kinase hotspot, 33P-ATP); type: biochemical; details: read-out: Inhibitory effect against kinase activity, C-RAF (IC50)
Experimental: (§1) Reaction biology kinase hotspot service (http://www.reactionbiology.com) was used to measure IC50. In a final reaction volume of 25 μL, kinase (5 mU to 10 mU) was incubated with 25 mM Tris (pH 7.5), 0.02 mM EGTA, 0.66 mg/ml of myelin basic protein, 10 mM magnesium acetate, and [^33P-ATP] (specific activity of about 500 CPM/pmol, concentration as required). The reaction was initiated by addition of Mg-ATP mix. After incubation for 40 min at room temperature, the reaction was stopped by addition of 5 μl of a 3% phosphoric acid solution. 10 μL of the reaction was then spotted onto a P30 filtermat and washed three times for 5 minutes in 75 mM phosphoric acid and once in methanol prior to drying and scintillation counting.

[2] = target: B-RAF (Homo sapiens (Human), UniProt P15056); test: as above; type: biochemical; details: read-out: Inhibitory effect against kinase activity, B-RAF (IC50)
Experimental: as §1

[3] = target: V600E-B-RAF (Homo sapiens (Human), UniProt P15056, V600E); test: as above; type: biochemical; details: read-out: Inhibitory effect against kinase activity, V600E-B-RAF (IC50)
Experimental: as §1

[4] = test system: A375; test: NCI cancer cell line panel screening (SRB), melanoma cell line A375; type: cell-based; details: Homo sapiens, A-375, read-out: IC50 against melanoma cell line in vitro
Experimental: (§2) According to the standard protocol (http://dtp.nci.nih.gov/dtpstandard/dwindex/index.isp) of the US National Cancer Institute (NCI) (www.dtp.nci.nih.gov), screening of a cancer cell line panel was performed. Briefly, human cell lines were allowed to grow in an RPMI 1640 medium containing 5% FBS and 2 mM L-glutamine. For a general screening experiment, cells were inoculated in 96-well microtiter plates in 100 μl at a plating density ranging from 5000 cells/well to 40,000 cells/well depending on the doubling time of individual cell lines. After cell inoculation, the microtiter plates were incubated at 37° C., 5% CO2, 95% air, and 100% relative humidity for 24 hours prior to addition of test compounds. 24 hours later, two plates of each cell line were fixed in situ with trichloroacetic acid (TCA) to measure the cell population for each cell line at the time of test compound addition (Tz). Test compounds were solubilized in dimethyl sulfoxide at 400-fold the intended final maximum test concentration, and stored frozen prior to use. At the time of compound addition, an aliquot of frozen concentrate was thawed and diluted to twice the intended final maximum test concentration with a complete medium containing 50 μg/ml of gentamicin. Additional four concentration of 10-fold or ½ log serial dilutions were made to provide a total of five compound concentrations plus control. Aliquots of 100 μl of these different compound dilutions were added to appropriate microtiter wells already containing 100 μl of medium, resulting in the required final compound concentrations.
(§3) Following compound addition, the plates were incubated for additional 48 hours at 37° C., 5% CO2, 95% air, and 100% relative humidity. For adherent cells, the assay was terminated by the addition of cold TCA. Cells were fixed in situ by the gentle addition of 50 μl of cold 50% (w/v) TCA (final concentration, 10% TAC) and incubated at 4° C. for 60 minutes. The supernatant was discarded, and the plates were washed five times with tap water and air-dried. A sulforhodamine B (SRB) solution (100 μl) at 0.4% (w/v) in 1% acetic acid was added to each well, and plates were incubated at room temperature for 10 minutes. After staining, unbound dye was removed by washing five times with 1% acetic acid and the plates were air-dried. Bound stain was subsequently solubilized with 10 mM Trizma base, and the absorbance was read on an automated plate reader at a wavelength of 515 nm. For suspension cells, the methodology was the same except that the assay was terminated by fixing settled cells at the bottom of the wells by gently adding 50 μl of 80% TCA (final concentration, 16% TCA). Using the seven absorbance measurements [time zero (Tz), control growth (C), and test growth rate in the presence of compound at the five concentration levels (Ti)], the growth percentage was calculated at each of the compound concentration levels. Growth inhibition percentage was calculated as follows: [(Ti−Tz)/(C−Tz)]×100 for concentrations for which Ti>/=Tz [(Ti−Tz)/Tz]×100 for concentrations for which Ti<Tz.

[5] = test system: SK-MEL-28; test: NCI cancer cell line panel screening (SRB), melanoma cell line SK-MEL-28; type: cell-based, human; details: Homo sapiens, read-out: IC50 against melanoma cell line in vitro
Experimental: as §2, with “Briefly, human cell lines were allowed to grow in an RPMI 1640 medium containing 5% FBS and 2 mM L-glutamine.” left out
as §3, with “Bound stain was subsequently solubilized with 10 mM Trizma base, and the absorbance was read on an automated plate reader at a wavelength of 515 nm.” left out

[6] = test system: MDA-MB-435; test: NCI cancer cell line panel screening (SRB), melanoma cell line MDA-MB-435; type: cell-based; details: Homo sapiens, read-out: IC50 against melanoma cell line in vitro
Experimental: as §2, §3

[7] = test system: SK-MEL-2; test: NCI cancer cell line panel screening (SRB), melanoma cell line SK-MEL-2; type: cell-based, human; details: Homo sapiens, read-out: IC50 against melanoma cell line in vitro
Experimental: as §2, with “Briefly, human cell lines were allowed to grow in an RPMI 1640 medium containing 5% FBS and 2 mM L-glutamine.” left out
as §3, with “Bound stain was subsequently solubilized with 10 mM Trizma base, and the absorbance was read on an automated plate reader at a wavelength of 515 nm.” left out

[8] = test system: SK-MEL-5; test: NCI cancer cell line panel screening (SRB), melanoma cell line SK-MEL-5; type: cell-based, human; details: Homo sapiens, read-out: IC50 against melanoma cell line in vitro
Experimental: as §2, with “Briefly, human cell lines were allowed to grow in an RPMI 1640 medium containing 5% FBS and 2 mM L-glutamine.” left out
as §3, with “Bound stain was subsequently solubilized with 10 mM Trizma base, and the absorbance was read on an automated plate reader at a wavelength of 515 nm.” left out

[9] = test system: UACC-62; test: NCI cancer cell line panel screening (SRB), melanoma cell line UACC-62; type: cell-based; details: Homo sapiens, read-out: IC50 against melanoma cell line in vitro
Experimental: as §2, §3

[10] = test system: M14; test: NCI cancer cell line panel screening (SRB), melanoma cell line M14; type: cell-based; details: Homo sapiens, read-out: IC50 against melanoma cell line in vitro
Experimental: as §2, §3

[11] = test system: LOX IMVI; test: NCI cancer cell line panel screening (SRB), melanoma cell line LOX IMVI; type: cell-based, human; details: Homo sapiens, read-out: IC50 against melanoma cell line in vitro
Experimental: as §2, with “Briefly, human cell lines were allowed to grow in an RPMI 1640 medium containing 5% FBS and 2 mM L-glutamine.” left out
as §3, with “Bound stain was subsequently solubilized with 10 mM Trizma base, and the absorbance was read on an automated plate reader at a wavelength of 515 nm.” left out

Sequence of B-RAF (P15056 whole entry): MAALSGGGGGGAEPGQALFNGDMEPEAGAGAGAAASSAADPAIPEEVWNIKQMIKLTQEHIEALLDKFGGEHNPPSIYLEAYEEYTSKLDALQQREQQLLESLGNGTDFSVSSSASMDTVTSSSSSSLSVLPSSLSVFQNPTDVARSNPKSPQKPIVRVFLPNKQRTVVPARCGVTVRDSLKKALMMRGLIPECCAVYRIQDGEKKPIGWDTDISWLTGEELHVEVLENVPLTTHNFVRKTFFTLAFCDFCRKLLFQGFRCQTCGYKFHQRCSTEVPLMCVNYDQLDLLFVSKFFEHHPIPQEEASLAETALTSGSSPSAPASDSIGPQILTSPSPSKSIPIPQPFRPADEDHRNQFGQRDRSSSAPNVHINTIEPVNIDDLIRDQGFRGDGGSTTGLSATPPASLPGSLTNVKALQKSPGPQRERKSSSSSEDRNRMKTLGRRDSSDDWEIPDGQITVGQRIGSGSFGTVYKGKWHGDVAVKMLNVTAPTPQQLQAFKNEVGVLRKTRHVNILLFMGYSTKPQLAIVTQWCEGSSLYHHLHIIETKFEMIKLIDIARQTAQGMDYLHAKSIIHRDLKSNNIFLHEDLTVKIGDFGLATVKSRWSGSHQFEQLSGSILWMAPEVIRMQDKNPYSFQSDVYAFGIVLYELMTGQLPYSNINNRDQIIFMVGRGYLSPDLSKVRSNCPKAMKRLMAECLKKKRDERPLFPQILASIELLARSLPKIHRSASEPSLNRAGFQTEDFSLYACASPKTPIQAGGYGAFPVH
Sequence of V600E-B-RAF (P15056 whole entry V600E): as the sequence (P15056 whole entry) above, with V600E counted along it
Sequence of C-RAF (P04049 306-648 Y340D/Y341D limits assumed): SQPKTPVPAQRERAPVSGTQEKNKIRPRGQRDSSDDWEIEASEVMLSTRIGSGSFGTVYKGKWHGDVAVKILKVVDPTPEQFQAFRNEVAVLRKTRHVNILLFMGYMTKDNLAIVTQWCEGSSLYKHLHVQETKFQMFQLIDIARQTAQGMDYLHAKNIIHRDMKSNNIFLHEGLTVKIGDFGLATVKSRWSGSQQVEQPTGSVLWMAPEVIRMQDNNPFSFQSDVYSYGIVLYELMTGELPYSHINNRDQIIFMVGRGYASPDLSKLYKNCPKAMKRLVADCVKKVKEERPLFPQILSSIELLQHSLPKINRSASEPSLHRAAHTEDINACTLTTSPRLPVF

SMILES	pIC50 [1]	pIC50 [2]	pIC50 [3]	pIC50 [4]	pIC50 [5]	pIC50 [6]	pIC50 [7]	pIC50 [8]	pIC50 [9]	pIC50 [10]	pIC50 [11]
CN1CCN(CCNc2nccc(-c3c(-c4cccc(O)c4)nc4occn34)n2)S1(=O)=O [1II, 2-(2-((4-(6-(3-Hydroxylphenyl)imidazo[2,1-b]oxazol-5-yl)pyrimidin-2-yl)amino)ethyl)-5-methyl-1,2,5-thiadiazolidine 1,1-dioxide]	8.53	8.49	8.73	7.22	–	–	–	–	–	–	–
O=S(=O)(NCCCNc1nccc(-c2c(-c3cccc(O)c3)nc3sccn23)n1)c1ccc(F)cc1 [31III, 4-fluoro-N-(3-((4-(6-(3-hydroxylphenyl)imidazo[2,1-b]thiazol-5-yl)pyrimidin-2-yl)amino)propyl)benzenesulfonamide]	8.11	8.38	9.01	6.52	7.30	6.62	5.96	5.92	7.70	7.22	6.25
